According to patent US9918470B2, “Pesticidal mixtures” (Syngenta Participations AG, priority 2011, dated 2018):

Columns and labels:
[1] = system: Heliothis virescens (Tobacco Budworm); assay: Heliothis virescens (Tobacco Budworm): eggs on artificial diet in 24-well plate, larval mortality after 4 days; assay type: in vivo
Procedure: Heliothis virescens (Tobacco Budworm)
Eggs (0-24 h old) are placed in 24-well microtiter plate on artificial diet and treated with test solutions (DMSO) by pipetting. After an incubation period of 4 days, samples are checked for larval mortality.
(§1) Columns 4 and 5 show the control observed from the compounds alone. […] When a compound applied alone gave no control at a particular rate, it is assumed that lower rates of that compound alone also give no control. DMET=deltamethrin, SPAT=spirotetramat, IMID=imidacloprid, B15=compound 15 in Table B.

[2] = system: Tetranychus urticae (Two-Spotted Spider Mite); assay: Tetranychus urticae (Two-Spotted Spider Mite): sprayed bean leaf discs, mobile stages mortality after 8 days; assay type: in vivo
Text: Tetranychus urticae (Two-Spotted Spider Mite)
Bean leaf discs on agar in 24-well microtiter plates are sprayed with test solutions (DMSO). After drying, the leaf discs are infested with mite populations of mixed ages. 8 days later, discs are checked for mobile stages (I removed “mixed population”) mortality.
as §1

With `CC(NC(=O)C1CC1)c1ccc(N2CCC(c3cc(C(F)(F)F)cc(C(F)(F)F)c3)(C(F)(F)F)C2)cc1` (mixture of isomers) [Compound B15] the “B15 observed control %” value ([1]; B15 alone 0.05 ppm (Table 2)) was 0%, the “B15 observed control %” value ([1]; B15 alone 0.1 ppm (Table 1)) was 55% and the “B15 observed control %” value ([1]; B15 alone 0.1 ppm (Table 2)) was 0%. For the same molecule, the “B15 observed control %” value ([1]; B15 alone 0.2 ppm (Table 1)) was 75%, the “B15 observed control %” value ([1]; B15 alone 0.2 ppm (Table 2)) was 85% and the “B15 observed control %” value ([1]; B15 alone 0.4 ppm (Table 1)) was 75%. For the same molecule, the “B15 observed control %” value ([1]; B15 alone 0.4 ppm (Table 2)) was 90%, the “B15 observed control %” value ([1]; B15 alone 0.8 ppm (Table 1)) was 85% and the “B15 observed control %” value ([1]; B15 alone 0.8 ppm (Table 2)) was 90%. The “B15 observed control %” value ([1]; B15 alone 1.6 ppm (Table 1)) was 95%, the “B15 observed control %” value ([2]; B15 alone 0.187 ppm) was 0% and the “B15 observed control %” value ([2]; B15 alone 0.375 ppm) was 0%. The “B15 observed control %” value ([2]; B15 alone 0.75 ppm) was 0% and the “B15 observed control %” value ([2]; B15 alone 1.5 ppm) was 30%.

`CCOC(=O)OC1=C(c2cc(C)ccc2C)C(=O)N[C@]12CC[C@@H](OC)CC2` [SPAT, spirotetramat] was tested, and the “SPAT observed control %” value ([1]; SPAT alone 6.25 ppm) was 0%, the “SPAT observed control %” value ([1]; SPAT alone 12.5 ppm) was 0% and the “SPAT observed control %” value ([1]; SPAT alone 25 ppm) was 0%. The “SPAT observed control %” value ([1]; SPAT alone 50 ppm) was 0%, the “SPAT observed control %” value ([1]; SPAT alone 100 ppm) was 0% and the “SPAT observed control %” value ([1]; SPAT alone 200 ppm) was 55%.

In the case of `CC1(C)[C@H](C(=O)O[C@H](C#N)c2cccc(Oc3ccccc3)c2)[C@@H]1C=C(Br)Br` [DMET, deltamethrin], the “DMET observed control %” value ([1]; DMET alone 0.0062 ppm) is reported as 0%, the “DMET observed control %” value ([1]; DMET alone 0.0125 ppm) is reported as 0% and the “DMET observed control %” value ([1]; DMET alone 0.025 ppm) is reported as 0%. For the same molecule, the “DMET observed control %” value ([1]; DMET alone 0.05 ppm) was 0%, the “DMET observed control %” value ([1]; DMET alone 0.1 ppm) was 0% and the “DMET observed control %” value ([1]; DMET alone 0.2 ppm) was 0%. The “DMET observed control %” value ([1]; DMET alone 0.4 ppm) was 0% and the “DMET observed control %” value ([1]; DMET alone 0.8 ppm) was 0%.

`O=[N+]([O-])NC1=NCCN1Cc1ccc(Cl)nc1` [IMID, imidacloprid] was tested, and the “IMID observed control %” value ([2]; IMID alone 12.5 ppm) was 0%, the “IMID observed control %” value ([2]; IMID alone 25 ppm) was 0% and the “IMID observed control %” value ([2]; IMID alone 50 ppm) was 0%. The “IMID observed control %” value ([2]; IMID alone 100 ppm) was 0%, the “IMID observed control %” value ([2]; IMID alone 200 ppm) was 0% and the “IMID observed control %” value ([2]; IMID alone 400 ppm) was 0%.
